In ChEMBL document CHEMBL6103572, “Design, synthesis and structure-activity relationship of novel 1,2,4-triazolopyrimidin-5-one derivatives targeting GABAA1 and Nav1.2 with antiepileptic activity” (Eur J Med Chem, 2025):

Experiments:
Mus musculus [1] = assay: Anticonvulsant activity in MES-induced seizure Kunming mouse model assessed as protection against tonic hind limb extension at 30 mg/kg, ip measured after 30 min; assay type: functional, organism-based
Mus musculus [2] = assay: Anticonvulsant activity in ip dosed sc-PTZ induced Kunming mouse model assessed as effective dose measured after 0.5 hrs […]; assay type: functional
[3] = Neurotoxicity in ip dosed sc-PTZ induced Kunming mouse measured after 0.5 hrs by rotarod test; assay type: toxicity, organism-based; conditions: in vivo
[4] = Drug concentration in male Sprague-Dawley rat plasma at 30 mg/kg, IG administered once measured after 0.25 to 8 hrs by HPLC analysis; assay type: ADME, organism-based; conditions: in vivo, po, time 0.25-8 hrs
Mus musculus [5] = assay: Antiepileptic activity in PTZ induced Kunming mouse model assessed as protection of seizure at 30 mg/kg, ip incubated for 30 min prior to PTZ stimulation relative to control; assay type: functional; conditions: 0.5 h
[6] = Drug concentration in male Sprague-Dawley rat brain at 30 mg/kg, IG administered once measured after 0.25 to 8 hrs by HPLC analysis; assay type: ADME, organism-based; conditions: in vivo, po, time 0.25-8 hrs
[7] = biological target: GABA-A receptor; alpha-1/beta-2/gamma-2 (Homo sapiens) (UniProt P14867+P47870+P18507); assay: Potentiation of recombinant human alpha1/beta2/gamma2 GABA receptor expressed in T-REX-CHO cells assessed as fold increase in current amplitude by measuring maximum efficacy by whole-cell patch clamp assay; assay type: cell-based; conditions: filed as activator, time 24-48 hrs
[8] = Protection index, ratio of TD50 for neurotoxicity in ip dosed scPTZ induced Kunming mouse to ED50 for anticonvulsant activity in ip dosed scPTZ induced Kunming mouse; assay type: toxicity, organism-based; conditions: in vivo, read-out: Ratio TD50/ED50
[9] = biological target: Sodium channel protein type 2 subunit alpha (Homo sapiens, UniProt Q99250); assay: Inhibition of Nav 1.2 (unknown origin) expressed in HEK293 cells at -20 mV to -120 mV holding potential under inactivation state by whole-cell patch clamp analysis; assay type: cell-based
Sodium channel protein type 2 subunit alpha, sequence (Q99250 whole entry): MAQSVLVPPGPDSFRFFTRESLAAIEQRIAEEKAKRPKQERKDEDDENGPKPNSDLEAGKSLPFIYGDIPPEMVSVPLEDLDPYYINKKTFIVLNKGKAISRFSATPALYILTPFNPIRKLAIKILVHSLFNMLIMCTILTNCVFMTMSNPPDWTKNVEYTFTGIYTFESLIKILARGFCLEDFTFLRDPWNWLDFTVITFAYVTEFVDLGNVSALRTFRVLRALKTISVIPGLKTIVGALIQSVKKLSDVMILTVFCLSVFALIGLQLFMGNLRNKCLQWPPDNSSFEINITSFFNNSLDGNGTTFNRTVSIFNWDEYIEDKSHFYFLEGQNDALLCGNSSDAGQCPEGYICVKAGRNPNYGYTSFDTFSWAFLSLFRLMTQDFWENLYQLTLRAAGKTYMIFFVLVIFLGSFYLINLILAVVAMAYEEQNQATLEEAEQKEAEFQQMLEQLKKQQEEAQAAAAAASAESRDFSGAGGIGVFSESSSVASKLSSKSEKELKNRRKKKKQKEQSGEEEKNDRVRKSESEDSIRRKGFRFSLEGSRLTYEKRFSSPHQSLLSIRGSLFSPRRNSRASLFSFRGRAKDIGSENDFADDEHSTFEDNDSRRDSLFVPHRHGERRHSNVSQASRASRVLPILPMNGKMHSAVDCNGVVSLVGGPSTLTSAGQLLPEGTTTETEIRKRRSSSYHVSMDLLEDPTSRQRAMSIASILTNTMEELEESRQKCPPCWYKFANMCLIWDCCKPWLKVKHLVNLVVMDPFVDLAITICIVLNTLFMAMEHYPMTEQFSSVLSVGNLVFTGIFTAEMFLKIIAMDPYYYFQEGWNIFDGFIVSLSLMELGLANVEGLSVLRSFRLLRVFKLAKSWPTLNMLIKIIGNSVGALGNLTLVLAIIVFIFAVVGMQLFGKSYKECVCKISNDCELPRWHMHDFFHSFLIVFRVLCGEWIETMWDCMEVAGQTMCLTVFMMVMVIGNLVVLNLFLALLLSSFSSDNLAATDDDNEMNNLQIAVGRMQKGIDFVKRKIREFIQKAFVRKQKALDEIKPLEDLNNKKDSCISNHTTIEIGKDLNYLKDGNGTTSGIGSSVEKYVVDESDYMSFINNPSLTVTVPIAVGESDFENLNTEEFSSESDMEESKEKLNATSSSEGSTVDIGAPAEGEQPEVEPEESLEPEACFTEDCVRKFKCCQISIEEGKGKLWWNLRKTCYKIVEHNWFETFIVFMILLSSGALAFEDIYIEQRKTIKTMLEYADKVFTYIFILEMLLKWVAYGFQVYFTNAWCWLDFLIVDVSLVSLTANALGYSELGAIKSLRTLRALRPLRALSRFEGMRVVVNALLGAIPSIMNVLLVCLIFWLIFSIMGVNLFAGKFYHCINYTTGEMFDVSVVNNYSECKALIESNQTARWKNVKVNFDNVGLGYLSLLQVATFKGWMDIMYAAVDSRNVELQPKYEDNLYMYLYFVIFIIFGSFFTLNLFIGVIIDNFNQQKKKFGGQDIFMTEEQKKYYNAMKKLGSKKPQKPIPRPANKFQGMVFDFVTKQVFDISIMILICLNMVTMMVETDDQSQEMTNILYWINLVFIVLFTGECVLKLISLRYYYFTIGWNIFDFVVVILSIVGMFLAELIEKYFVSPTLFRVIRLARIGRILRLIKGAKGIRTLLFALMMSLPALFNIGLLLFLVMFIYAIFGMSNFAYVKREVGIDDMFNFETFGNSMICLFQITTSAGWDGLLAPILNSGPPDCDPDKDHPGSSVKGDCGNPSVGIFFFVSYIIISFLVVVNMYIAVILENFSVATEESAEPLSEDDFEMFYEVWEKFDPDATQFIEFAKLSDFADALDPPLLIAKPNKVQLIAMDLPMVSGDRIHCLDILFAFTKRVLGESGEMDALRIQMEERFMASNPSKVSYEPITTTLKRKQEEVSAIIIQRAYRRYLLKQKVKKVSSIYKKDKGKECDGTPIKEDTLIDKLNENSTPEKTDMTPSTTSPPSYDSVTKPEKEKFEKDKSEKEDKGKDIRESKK

[10] = biological target: GABA-A receptor; anion channel (Rattus norvegicus) (UniProt O09028+P15431+P18506+P18508+P19969+P20236+P23574+P23576+P28471+P28473+P30191+P62813+P63079+P63138+Q91ZM7+Q9ES14); assay: Potentiation of GABAA receptor in Sprague-Dawley rat hippocampal neurons assessed as increase in current amplitude by whole-cell voltage-clamp assay; assay type: cell-based; conditions: Hippocampal neuron, filed as activator, dose 0.1-10 µM
[11] = biological target: T1, GABA-A receptor; alpha-1/beta-2/gamma-2 (Homo sapiens, UniProt P14867+P18507+P47870); assay: Potentiation of recombinant human alpha1/beta2/gamma2 GABA receptor expressed in T-REX-CHO cells assessed as increase in current amplitude by whole-cell patch clamp assay; assay type: cell-based
T1 sequence (P14867 whole entry): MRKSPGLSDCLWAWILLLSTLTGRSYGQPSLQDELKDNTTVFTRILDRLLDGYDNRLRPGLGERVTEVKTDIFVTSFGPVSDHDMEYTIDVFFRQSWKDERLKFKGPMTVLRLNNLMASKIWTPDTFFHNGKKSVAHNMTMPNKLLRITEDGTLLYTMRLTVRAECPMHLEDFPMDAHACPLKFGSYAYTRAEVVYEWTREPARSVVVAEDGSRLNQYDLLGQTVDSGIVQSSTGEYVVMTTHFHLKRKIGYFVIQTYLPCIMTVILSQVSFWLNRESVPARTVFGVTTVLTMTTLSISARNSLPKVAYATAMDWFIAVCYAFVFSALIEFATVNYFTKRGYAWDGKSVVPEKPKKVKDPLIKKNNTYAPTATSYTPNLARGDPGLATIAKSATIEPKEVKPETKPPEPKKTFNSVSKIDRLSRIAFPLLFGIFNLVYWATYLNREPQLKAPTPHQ
T1 sequence (P47870 whole entry): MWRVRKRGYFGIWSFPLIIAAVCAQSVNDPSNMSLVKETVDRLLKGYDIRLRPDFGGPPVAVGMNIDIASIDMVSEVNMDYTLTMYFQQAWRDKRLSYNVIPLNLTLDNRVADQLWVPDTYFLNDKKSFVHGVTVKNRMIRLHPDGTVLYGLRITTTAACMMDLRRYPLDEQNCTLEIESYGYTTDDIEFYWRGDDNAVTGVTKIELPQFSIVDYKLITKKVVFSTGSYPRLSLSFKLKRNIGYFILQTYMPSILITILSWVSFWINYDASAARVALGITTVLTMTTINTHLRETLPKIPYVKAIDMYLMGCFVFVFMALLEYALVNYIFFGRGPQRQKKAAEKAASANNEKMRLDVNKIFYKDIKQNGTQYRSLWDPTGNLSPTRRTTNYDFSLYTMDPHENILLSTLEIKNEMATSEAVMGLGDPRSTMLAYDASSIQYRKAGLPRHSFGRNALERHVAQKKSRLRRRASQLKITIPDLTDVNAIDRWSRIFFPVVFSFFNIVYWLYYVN
T1 sequence (P18507 whole entry): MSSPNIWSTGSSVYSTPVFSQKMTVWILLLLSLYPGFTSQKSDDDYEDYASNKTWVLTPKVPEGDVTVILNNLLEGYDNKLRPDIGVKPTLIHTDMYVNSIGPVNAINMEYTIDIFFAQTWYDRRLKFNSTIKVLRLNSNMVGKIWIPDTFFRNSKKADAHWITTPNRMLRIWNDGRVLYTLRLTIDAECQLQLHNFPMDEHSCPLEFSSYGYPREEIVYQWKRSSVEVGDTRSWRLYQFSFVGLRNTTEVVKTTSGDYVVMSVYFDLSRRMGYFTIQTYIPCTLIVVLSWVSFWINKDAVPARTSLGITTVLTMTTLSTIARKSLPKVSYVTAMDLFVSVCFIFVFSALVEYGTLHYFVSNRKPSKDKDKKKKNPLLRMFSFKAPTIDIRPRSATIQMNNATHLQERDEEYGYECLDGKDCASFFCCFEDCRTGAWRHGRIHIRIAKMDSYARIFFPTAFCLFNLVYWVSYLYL

SMILES: O=C1CC(c2ccccc2Cl)n2nc(-c3ccccc3F)nc2N1 (configuration not stated)
- Activity (Mus musculus [1]): Active; Moderate Protection

SMILES: NC(=O)N1c2ccccc2C=Cc2ccccc21 [CARBAMAZEPINE]
- ED50 (Mus musculus [2]): > 100 mg/kg

SMILES: O=C1CC(c2ccccc2F)n2nc(-c3ccccc3F)nc2N1 (configuration not stated)
- TD50 at 0.5 h [3]: > 267 mg/kg
- Activity (Mus musculus [1]): Active; Moderate Protection
- Cp [4]: 866.91 ng/mL
- Activity (Mus musculus [5]): 100%
- Ct [6]: 458.72 ng/mL
- fold change (FC) [7]: 1.14
- ED50 (Mus musculus [2]): 23.7 mg/kg
- selectivity ratio [8]: > 11.3
- IC50 [9]: 19.9 µM

SMILES: CCCCN1C(=O)CC(c2ccccc2)n2nc(-c3ccc(C)cc3)nc21 (configuration not stated)
- TD50 at 0.5 h [3]: > 267 mg/kg
- Cp [4]: 1186.41 ng/mL
- Activity (Mus musculus [5]): 100%
- Ct [6]: 661.3 ng/mL
- Activity [10]: Dose-dependent-effect
- fold change (FC) [7]: 2.21
- ED50 (Mus musculus [2]): 18.3 mg/kg
- selectivity ratio [8]: > 14.6
- EC50 [11]: 0.82 µM

SMILES: CCCCN1C(=O)CC(c2ccccc2)n2nc(-c3ccc(OC)cc3)nc21 (configuration not stated)
- TD50 at 0.5 h [3]: > 267 mg/kg
- Cp [4]: 1202.06 ng/mL
- Activity (Mus musculus [5]): 100%
- Ct [6]: 696.98 ng/mL
- Activity [10]: Dose-dependent-effect
- fold change (FC) [7]: 2.41
- ED50 (Mus musculus [2]): 17.1 mg/kg
- selectivity ratio [8]: > 15.6
- EC50 [11]: 1.24 µM
- IC50 [9]: 35 µM

SMILES: CCCC(CCC)C(=O)O [VALPROIC ACID]
- ED50 (Mus musculus [2]): 149 mg/kg

SMILES: O=C1NC(=O)C(c2ccccc2)(c2ccccc2)N1 [PHENYTOIN]
- ED50 (Mus musculus [2]): > 300 mg/kg
